The text below walks through data of patent US8741897B2, “Glucocorticoid mimetics, methods of making them, pharmaceutical compositions and uses thereof” (Boehringer Ingelheim Pharmaceuticals Inc., priority 2003, dated 2014).

The test system of this assay is glucocorticoid receptor function. The assay can be described thus: one or more of the above assays (GR binding and glucocorticoid receptor cell assays: aromatase, IL-6, TAT, MMTV-Luc, IL-8, ICAM-Luc). The settings on record: assay not specified per compound. It counts as cell-based. As for the experimental part: B. Glucocorticoid Receptor Cell Assays
1. Induction of Aromatase in Fibroblasts (Cell Assay for Transactivation)
Dexamethasone, a synthetic ligand to the glucocorticoid receptor (GR), induces expression of aromatase in human foreskin fibroblast cells. The activity of aromatase is measured by the conversion of testosterone to estradiol in culture media.
On the day of the experiment, the media in the wells is replaced with fresh media. Cells are treated with test compounds to final concentrations of 10^−5 M to 10^−8 M, and testosterone to a final concentration of 300 ng/mL. Each well has a total volume of 100 μL. Samples are made in duplicates. Control wells include: (a) wells that receive testosterone only, and (b) wells that receive testosterone plus 2 μM of dexamethasone to provide maximum induction of aromatase. Plates are incubated at 37° C. overnight (15 to 18 hours), and supernatants are harvested at the end of incubation. […] The amount of estradiol is inversely proportional to the ELISA signals in each well. The extent of aromatase induction by test compounds is expressed as a relative percentage to dexamethasone. EC50 values of test compounds are derived by non-linear curve fitting.
2. Inhibition of IL-6 Production in Fibroblasts (Cell Assay for Transrepression)
Human foreskin fibroblast cells produce IL-6 in response to stimulation by proinflammatory cytokine IL-1.
On the next day, media in the wells is replaced with fresh media. Cells are treated with IL-1 (rhIL-1α, R&D Systems Cat. No. 200-LA) to a final concentration of 1 ng/mL, and with test compounds to final concentrations of 10^−5 M to 10^−8 M, in a total volume of 200 μL per well. Samples are done in duplicates. […] Positive control wells receive IL-1 only and represent maximum (or 100%) amount of IL-6 production. Plates are incubated at 37° C. overnight (15 to 18 hours), and supernatants are harvested at the end of incubation. IL-6 levels in the supernatants are determined by the ELISA kits for IL-6 (MedSystems Diagnostics GmbH, Vienna, Austria, Cat. No. BMS213TEN) according to manufacture's instructions. The extent of inhibition of IL-6 by test compounds is expressed in percentage relative to positive controls. IC50 values of test compounds are derived by non-linear curve fitting.
Evaluation of agonist or antagonist activity of compounds binding to the glucocorticoid receptor may be determined by any of the assays.
3. Modulation of Tyrosine Aminotransferase (TAT) Induction in Rat Hepatoma Cells
Testing of compounds for agonist or antagonist activity in induction of tyrosine aminotransferase (TAT) in rat hepatoma cells.
H4-II-E-C3 cells were incubated overnight in 96 well plates (20,000 cells/100 μL/well) in MEM medium containing 10% heat inactivated FBS and 1% nonessential amino acids. On the next day, cells were stimulated with the indicated concentrations of dexamethasone or test compound (dissolved in DMSO, final DMSO concentration 0.2%) for 18 hours. Control cells were treated with 0.2% DMSO. After 18 hours, the cells were lysed in a buffer containing 0.1% Triton X-100 and the TAT activity was measured in a photometric assay using tyrosine and alpha-ketoglutarate as substrates.
For measuring antagonist activity, the hepatoma cells were pre-stimulated by addition of dexamethasone (concentration ranges from 3×10^−9 M to 3×10^−8 M) shortly before the test compound was applied to the cells.
4. Modulation of MMTV-Luc Induction in HeLa Cells
Testing of compounds for agonist or antagonist activity in stimulation of MMTV-(mouse mammary tumor virus) promoter in HeLa cells.
Cells were cultured overnight in DMEM medium without phenol red, supplemented with 3% CCS (charcoal treated calf serum) and then transferred to 96 well plates (15,000 cells/100 μL/well).
With `Cc1nccc2[nH]c(CC(O)(CC(C)(C)c3ccc(F)cc3O)C(F)(F)F)cc12` (stereo not drawn) [5-Fluoro-2-[4,4,4-trifluoro-3-hydroxy-1,1-dimethyl-3-(4-methyl-1H-pyrrolo[3,2-c]pyridin-2-ylmethyl)butyl]phenol], the “activity as agonists of the glucocorticoid receptor function in one or more of the above assays” value (“activity as agonists” for short) is “potent agonists”.

`COc1ccc(-c2ccccc2)cc1C(C)(C)CC(O)(Cc1cc2c(C)nccc2[nH]1)C(F)(F)F` (stereo not drawn) [1,1,1-Trifluoro-4-(4-methoxybiphenyl-3-yl)-4-methyl-2-(4-methyl-1H-pyrrolo[3,2-c]pyridin-2-ylmethyl)pentan-2-ol]: the “activity as agonists” value was “potent agonists”.

Consider `COc1ccc(-c2ccccc2)cc1C(C)(C)CC(O)(Cc1cc2cc(OC(C)C)ncc2[nH]1)C(F)(F)F` (stereo not drawn) [1,1,1-Trifluoro-2-(5-isopropoxy-1H-pyrrolo[2,3-c]pyridin-2-ylmethyl)-4-(4-methoxybiphenyl-3-yl)-4-methylpentan-2-ol], for which the “activity as agonists” value is “potent agonists”.

On to `CC(C)(CC(O)(Cc1cc2cnccc2[nH]1)C(C)(C)C)c1cc(Cl)cc2c1OCC2` (stereo not drawn) [5-(5-Chloro-2,3-dihydrobenzofuran-7-yl)-2,2,5-trimethyl-3-(1H-pyrrolo[3,2-c]pyridin-2-ylmethyl)hexan-3-ol], for which the “activity as agonists” value is reported as “agonists”.

`C[S+]([O-])c1ccc2[nH]c(CC(O)(CC(C)(C)c3cc(F)cc4c3OCC4)C(F)(F)F)cc2c1` (stereo not drawn) [1,1,1-Trifluoro-4-(5-fluoro-2,3-dihydrobenzofuran-7-yl)-2-(5-methanesulfinyl-1H-indol-2-ylmethyl)-4-methylpentan-2-ol]: the “activity as agonists” value is recorded as “potent agonists”.

Regarding `CN(C)c1cc2cc(CC(O)(CC(C)(C)c3ccccc3)C(F)(F)F)[nH]c2cn1` (stereo not drawn) [2-(5-Dimethylamino-1H-pyrrolo[2,3-c]pyridin-2-ylmethyl)-1,1,1-trifluoro-4-methyl-4-phenylpentan-2-ol], the “activity as agonists” value was “potent agonists”.

On to `COc1cc(F)ccc1C(C)(C)CC(O)(Cc1[nH]c2cnccc2c1C)C(F)(F)F` (stereo not drawn) [1,1,1-Trifluoro-4-(4-fluoro-2-methoxyphenyl)-4-methyl-2-(3-methyl-1H-pyrrolo[2,3-c]pyridin-2-ylmethyl)pentan-2-ol], for which the “activity as agonists” value was “potent agonists”.

`CC(C)(CC(O)(Cn1ccc2c1CCCC2=O)C(F)(F)F)c1cccc2c1OCC2` (stereo not drawn) [1-[4-(2,3-Dihydrobenzofuran-7-yl)-2-hydroxy-4-methyl-2-trifluoromethylpentyl]-1,5,6,7-tetrahydroindol-4-one]: the “activity as agonists” value is recorded as “agonists”.

`Cc1ccc(F)cc1C(C)(C)CC(O)(Cc1cc2cc(N3CCCC3)ncc2[nH]1)C(F)(F)F` (stereo not drawn) [1,1,1-Trifluoro-4-(5-fluoro-2-methylphenyl)-4-methyl-2-(5-pyrrolidin-1-yl-1H-pyrrolo[2,3-c]pyridin-2-ylmethyl)pentan-2-ol]: the “activity as agonists” value was “potent agonists”.

With `CC(C)(CC(O)(Cn1ccc2c1CCCC2=O)C(F)(F)F)c1cc(-c2cncnc2)ccc1O` (stereo not drawn) [1-[2-Hydroxy-4-(2-hydroxy-5-pyrimidin-5-ylphenyl)-4-methyl-2-trifluoromethylpentyl]-1,5,6,7-tetrahydroindol-4-one], the “activity as agonists” value is “agonists”.

In the case of `Cc1ccc(F)cc1C(C)(C)CC(O)(Cc1[nH]c2cnccc2c1C)C(C)(C)C` (stereo not drawn) [5-(5-Fluoro-2-methylphenyl)-2,2,5-trimethyl-3-(3-methyl-1H-pyrrolo[2,3-c]pyridin-2-ylmethyl)hexan-3-ol], the “activity as agonists” value was “agonists”.

`CSc1cc2c(c(C(C)(C)CC(O)(Cc3cc4cc(Cl)ncc4[nH]3)C(F)(F)F)c1)OCC2` (stereo not drawn) [2-(5-Chloro-1H-pyrrolo[2,3-c]pyridin-2-ylmethyl)-1,1,1-trifluoro-4-methyl-4-(5-methylsulfanyl-2,3-dihydrobenzofuran-7-yl)pentan-2-ol]: the “activity as agonists” value is on record as “potent agonists”.

For the compound `COc1ccc(F)cc1C(C)(C)CC(O)(Cc1cc2nc(-c3ccccc3)ncc2[nH]1)C(F)(F)F` (stereo not drawn) [1,1,1-Trifluoro-4-(5-fluoro-2-methoxyphenyl)-4-methyl-2-(2-phenyl-5H-pyrrolo[3,2-d]pyrimidin-6-ylmethyl)pentan-2-ol], the “activity as agonists” value was “potent agonists”.

Take `CC(C)(CC(O)(Cc1cc2cnccc2[nH]1)C(F)(F)F)c1cccc(CN2CCOCC2)c1` (stereo not drawn) [1,1,1-Trifluoro-4-methyl-4-(3-morpholin-4-ylmethylphenyl)-2-(1H-pyrrolo[3,2-c]pyridin-2-ylmethyl)pentan-2-ol]: the “activity as agonists” value is “potent agonists”.

As to `Cc1ccc(F)cc1C(C)(C)CC(O)(Cc1cc2cnccc2[nH]1)C1CC1` (stereo not drawn) [2-Cyclopropyl-4-(5-fluoro-2-methylphenyl)-4-methyl-1-(1H-pyrrolo[3,2-c]pyridin-2-yl)pentan-2-ol], the “activity as agonists” value is reported as “agonists”.

In the case of `Cc1c(CC(O)(CC(C)(C)c2ccc(F)cc2O)C(F)(F)F)[nH]c2cnccc12` (stereo not drawn) [5-Fluoro-2-[4,4,4-trifluoro-3-hydroxy-1,1-dimethyl-3-(3-methyl-1H-pyrrolo[2,3-c]pyridin-2-ylmethyl)butyl]phenol], the “activity as agonists” value is “potent agonists”.

Consider `CCC(C)(C)C(O)(Cc1cc2ccncc2[nH]1)CC(C)(C)c1cc(F)ccc1OC` (stereo not drawn) [2-(5-Fluoro-2-methoxyphenyl)-2,5,5-trimethyl-4-(1H-pyrrolo[2,3-c]pyridin-2-ylmethyl)heptan-4-ol], for which the “activity as agonists” value was “agonists”.

As to `Cc1c(CC(O)(CC(C)(C)c2cccc(F)c2)C(F)(F)F)[nH]c2cnccc12` (stereo not drawn) [1,1,1-Trifluoro-4-(3-fluorophenyl)-4-methyl-2-(3-methyl-1H-pyrrolo[2,3-c]pyridin-2-ylmethyl)pentan-2-ol], the “activity as agonists” value is “potent agonists”.

For the compound `Cc1nc(C#N)cc2[nH]c(CC(O)(CC(C)(C)c3cc(S(C)(=O)=O)cc4c3OCC4)C(F)(F)F)cc12` (stereo not drawn) [2-[2-Hydroxy-4-(5-methanesulfonyl-2,3-dihydrobenzofuran-7-yl)-4-methyl-2-trifluoromethylpentyl]-4-methyl-1H-pyrrolo[3,2-c]pyridine-6-carbonitrile], the “activity as agonists” value was “potent agonists”.

As for `Cc1ccc(F)cc1C(C)(C)CC(O)(Cc1cc2ccncc2[nH]1)C(C)C` (stereo not drawn) [5-(5-Fluoro-2-methylphenyl)-2,5-dimethyl-3-(1H-pyrrolo[2,3-c]pyridin-2-ylmethyl)hexan-3-ol], the “activity as agonists” value is “agonists”.

For `Cc1nccc2[nH]c(CC(O)(CC(C)(C)c3cc(-c4ccccc4)ccc3O)C(F)(F)F)cc12` (stereo not drawn) [3-[4,4,4-Trifluoro-3-hydroxy-1,1-dimethyl-3-(4-methyl-1H-pyrrolo[3,2-c]pyridin-2-ylmethyl)butyl]biphenyl-4-ol], the “activity as agonists” value is given as “potent agonists”.
